From patent US20120134985A1, “METHODS FOR MODULATING METABOLIC AND CIRCADIAN RHYTHMS” (The Salk Institute for Biological Studies, priority 2009, published 2012)
Each block holds one molecule with its values, some of them ahead of it.

Tests used:
[1] = system: AMPK; settings: cited from earlier work
[2] = system: AMPK; experiment: In vitro phosphorylation assay of purified Flag-mCRY1 by purified AMPK; format: biochemical; settings: 300 μM AMP; 30 minutes; 32P-ATP
Procedure: Flag-tagged mCRY1 purified from AD293 cells was incubated for 30 minutes with #^32P-ATP in the absence or presence of AMP kinase and 300 μM AMP as indicated. Phosphorylation of mCRY1 was detected by autoradiography; total mCRY1 levels were determined by immunoblot for the Flag epitope.
In vitro Phosphorylation Assay—Flag-mCRY1 was purified from transfected AD293 cells and combined with ^32P-ATP and purified AMPK (from Upstate Biotechnology) in the presence or absence of 300 uM AMP for 30 minutes at room temperature. The reaction mixture was separated by SDS-PAGE and transferred to nitrocellulose. Following radioactive visualization by phosphoimager, the nitrocellulose was immunoblotted for the Flag tag.

[3] = system: Bmall-luciferase; experiment: Real time bioluminescence monitoring of Bmall-luciferase circadian rhythms; format: cell-based, human; settings: high glucose medium supplemented with 2 mM AICAR
Procedure: (§1) (A) Unsynchronized paired wild type (AMPK^+/+) or ampkα1^−/−; ampkα2^−/− (AMPK−/−) mouse embryonic fibroblasts were stimulated by 2 hour exposure to 50% horse serum followed by transfer to media containing 25 mM glucose, 0.5 mM glucose or 25 mM glucose supplemented with 1 mM AICAR. Quantitative PCR analysis was performed using cDNA samples collected at the indicated times following stimulation. Data represent the mean of two independent experiments, each analyzed in triplicate. (B) Fibroblasts stably expressing Bmall-luciferase were cultured in media containing the indicated amounts of glucose with or without 2 mM AICAR. Typical results of continuous monitoring of luciferase activity are shown. (C and D) Quantitation of the circadian period (C) and amplitude (D) of Bmall-driven luciferase activity from experiments performed as described in (B). Data in (C) and (D) represent the mean±standard deviation for four samples per condition. ANOVA analysis indicated a significant difference between categories. ** P<0.01 vs. samples cultured in 25 mM glucose in Scheffe's post-hoc analysis.
The Bmall promoter is repressed by REVERBa. […]
Real Time Bioluminescence Monitoring—The human osteosarcoma U2OS reporter cell line stably expressing a Bmall promoter driven luciferase has been described. […] Bioluminescence was continuously recorded by a LumiCycle apparatus from Actimetrics, Inc.

[4] = system: mCRY1; experiment: Levels of exogenously expressed Flag-mCRY1 in HeLa cells expressing WT or KD LKB1 (immunoblot); format: cell-based, mouse; settings: HeLa cells with wild type (WT) LKB1; 2 mM AICAR for 2 hours
Source text: (A) Sequence alignments showing evolutionary conservation of the regions surrounding S71 of mCRY1 in cryptochrome circadian transcriptional repressors (species names in red font) and blue light photoreceptors (species names in blue font). The highlighted numbers above the sequences indicate amino acid preferences at those positions relative to the target serine for phosphorylation by AMP kinase: red indicates a preference for acidic residues (K/R) and green for hydrophobic residues (L/I/V/F). (B) Top: sequence alignment of the phospho-peptides against which antibodies to mCRY1-pS71 and mACC1-pS79 were raised. Bottom: Both anti-mCRY1-pS71 and anti-ACC1-pS79 antibodies recognize WT but not S71A Flag-mCRY1 immunoprecipitated from AD293 cells. (C) anti-mCRY1-p571 was used to detect phosphorylation of Ser71 in Flag-CRY1 immunoprecipitated from AD293 cells transiently expressing wild type CRY1 (WT) or CRY1S71A (S71A) in the absence or presence of activated alleles of AMPKα1 (CAα1) or AMPKα2 (CAα2). Transiently expressed myc-CAα1 and myc-CAα2 were immunostained with polyclonal rabbit antibodies raised against the myc epitope tags and anti-rabbit AF488 (green). Nuclei were counterstained with DAPI (blue). […] CRY1 was detected by immunoprecipitation and immunoblotting for the Flag epitope in (D-G). […]

[5] = system: CRY1; experiment: Flag-CRY1 degradation/stability in AMPK+/+ and AMPK-/- mouse embryonic fibroblasts (immunoprecipitation, immunoblot, cycloheximide time course); format: cell-based
Source text: (A) Sequence alignments showing evolutionary conservation of the regions surrounding S71 of mCRY1 in cryptochrome circadian transcriptional repressors (species names in red font) and blue light photoreceptors (species names in blue font). The highlighted numbers above the sequences indicate amino acid preferences at those positions relative to the target serine for phosphorylation by AMP kinase: red indicates a preference for acidic residues (K/R) and green for hydrophobic residues (L/I/V/F). (B) Top: sequence alignment of the phospho-peptides against which antibodies to mCRY1-pS71 and mACC1-pS79 were raised. Bottom: Both anti-mCRY1-pS71 and anti-ACC1-pS79 antibodies recognize WT but not S71A Flag-mCRY1 immunoprecipitated from AD293 cells. (C) anti-mCRY1-p571 was used to detect phosphorylation of Ser71 in Flag-CRY1 immunoprecipitated from AD293 cells transiently expressing wild type CRY1 (WT) or CRY1S71A (S71A) in the absence or presence of activated alleles of AMPKα1 (CAα1) or AMPKα2 (CAα2). Transiently expressed myc-CAα1 and myc-CAα2 were immunostained with polyclonal rabbit antibodies raised against the myc epitope tags and anti-rabbit AF488 (green). Nuclei were counterstained with DAPI (blue). (D) HeLa cells transiently expressing Flag-CRY1 with wild type (WT) or kinase dead (KD) LKB1 were treated with vehicle (−) or 2 mM AICAR (+) for 2 hours. (E) AD293 cells transiently expressing the indicated alleles of Flag-mCRY1 were treated with media containing 25 mM or 0.5 mM glucose. (F) Paired wild type (AMPK+/+) and ampkα1^−/−;ampkα2^−/− (AMPK−/−) mouse embryonic fibroblasts stably expressing Flag-tagged wild type CRY1 (WT) or CRY1S71A/S280A (AA) were treated with vehicle (−) or 2 mM AICAR (+) for 2 hours. (G) MEFs described in (F) were treated with 100 μg/ml cycloheximide (CHX) for the indicated times. CRY1 was detected by immunoprecipitation and immunoblotting for the Flag epitope in (D-G). […]

[6] = system: Fas and Por expression in liver; experiment: Liver gene expression (quantitative PCR) in wildtype and Cry1-/-;Cry2-/- mice injected with AICAR; format: in vivo, mouse
Procedure: Wildtype (WT) or Cry1^−/−;Cry2^−/− (CRY^−/−) mice were injected with either saline (black bars) or 500 mg AICAR per kg of bodyweight (red bars) at 6:00 pm. cDNA was prepared from livers collected four hours later at 10:00 pm and gene expression was analyzed by quantitative PCR using Sybr GreenER chemistry. […] Data represent the mean±s.e.m. for 3-5 mice per condition.
Gene Expression—RNA was extracted from livers or cultured fibroblasts with Trizol or using the Qiagen RNeasy purification system. cDNA was prepared using the SuperscriptII reverse transcriptase (Invitrogen) and analyzed for gene expression using quantitative real-time PCR with either SYBR green (Invitrogen) or TaqMan (Applied Biosystems) chemistry. Primer sequences are available upon request.
Mice—LKB1^fl/fl mice were a gift from Dr. Ronald De Pinho, Cry1^−/−;Cry2^−/− mice were a gift from Dr. Aziz Sancar. Adenovirus expressing Cre recombinase was from the University of Iowa Transgenic Core facility. All animal care and treatments were in accordance with the Salk Institute guidelines for the care and use of animals.
Furthermore, the effect on metabolic physiology of genetic disruption of both Cry1 and Cry2 in mice is examined.

[7] = system: reverba and dbp expression; experiment: Quantitative PCR of circadian transcripts in serum-stimulated mouse embryonic fibroblasts; format: cell-based; settings: 25 mM glucose supplemented with 1 mM AICAR
Procedure: as §1, with “ANOVA analysis indicated a significant difference between categories. ** P<0.01 vs. samples cultured in 25 mM glucose in Scheffe's post-hoc analysis.” left out
FIG. 10A-D show disruption of AMPK alters circadian rhythms in MEFs. […] Quantitative PCR analysis was performed using cDNA samples prepared from lysates collected at the indicated times following stimulation. Data represent the mean±standard deviation of two or three independent experiments each analyzed in triplicate. […]

[8] = WT or Cry1-/-;Cry2-/- mice, 500 mg AICAR per kg of bodyweight, livers collected four hours later

Compound: NC(=O)c1ncn([C@@H]2O[C@H](COP(=O)(O)O)[C@@H](O)[C@H]2O)c1N [ZMP, 5-amino-4-imidazolecarboxamide ribotide]
AMPK activation ([1]; AMP analog formed in the cell from AICAR): has been shown to activate AMPK
specificity as AMPK activator ([1]; also acts as an AMP mimic in the regulation of other enzymes): not a specific AMPK activator

Compound: Nc1ncnc2c1ncn2[C@@H]1O[C@H](COP(=O)(O)O)[C@@H](O)[C@H]1O [AMP]
phosphorylation of mCRY1 by purified AMPK [2]: strongly activated

amplitude of Bmall-luciferase expression [3]: decreased the amplitude
Compound: NC(=O)c1ncn([C@@H]2O[C@H](CO)[C@@H](O)[C@H]2O)c1N [AICAR, 5-amino-4-imidazolecarboxamide riboside]
levels of exogenously expressed mCRY1 [4]: reduction was enhanced
stability of wild type CRY1 ([5]; 4-hour time course of cycloheximide treatment in the presence of AICAR): reduced stability
effect on WT or AA CRY1 ([5]; AMPK-/- MEFs (absence of functional AMPK), 2 mM AICAR for 2 hours): no effect
degradation of wild type (WT) Flag-CRY1 ([5]; wild type (AMPK+/+) MEFs, 2 mM AICAR for 2 hours): acutely degraded
Fas (fatty acid synthase) expression in liver [6, 8]: activated by AICAR regardless of Cry1 and Cry2 genotype
Por (p450 oxidoreductase) expression in liver [6, 8]: AICAR-induced activation requires cryptochromes
gene expression in the livers ([6]; wildtype and cryptochrome-deficient mice injected with AICAR): cryptochromes are required for AICAR-induced activation of a subset of the genes
expression of reverba and dbp ([7]; MEFs lacking AMPK (AMPK-/-)): neither glucose deprivation nor AICAR treatment affected
amplitude of circadian reverba and dbp expression ([7]; wild type fibroblasts): mimicked the effects of glucose deprivation
